In patent publication US9512075B2 (OKAYAMA UNIVERSITY, priority 2012, dated 2016) one finds MIC data, which are given here for eight compounds.

Holding throughout (assay type): cell-based
Assay [1] deals with Staphylococcus aureus 209P strain. Briefly: MIC for Staphylococcus aureus 209P strain. The conditions noted are these: Staphylococcus aureus, read-out: MIC Straphyrococcus aureus 209P.
The subject of assay [2] is Clostridium difficile JCM1296 strain. The assay is described as follows: microbe, parasite or virus in culture. The following applies: Clostridioides difficile, JCM1296, read-out: MIC Clostridium difficile JCM1296.
In assay [3] the test system is Escherichia coli BE1121 strain. The assay is described as follows: MIC for Escherichia coli BE1121 strain. The following applies: Escherichia coli, BE1121STRAIN, read-out: MIC Escherichia coli BE1121.
In assay [4] the test system is Staphylococcus aureus Smith strain. The assay is described as follows: MIC for Staphylococcus aureus Smith strain. The following applies: read-out: MIC Straphyrococcus aureus Smith.
The test system of assay [5] is Escherichia coli K-12 strain. The assay is described as follows: MIC for Escherichia coli K-12 strain. The following applies: Escherichia coli, K12STRAIN, read-out: MIC Escherichia coli K12.
In assay [6] the test system is Enterococcus faecalis 5038 strain. The assay is described as follows: MIC for Enterococcus faecalis 5038 strain. The following applies: read-out: MIC Enterococcus faecalis 5038.
The subject of assay [7] is Staphylococcus aureus MRSA No. 17 (methicillin-resistant Staphylococcus aureus: MRSA). Briefly: MIC for Staphylococcus aureus MRSA No. 17. The conditions noted are these: read-out: MIC Straphyrococcus aureus MRSA No. 17 (MRSA).
Assay [8] relates to Enterococcus faecalis NCTC12201 strain (vancomycin-resistant Enterococcus: VRE). Briefly: MIC for Enterococcus faecalis NCTC12201 strain (VRE). The following applies: read-out: MIC Enterococcus faecalis NCTC 12201 (VRE).
The test system of assay [9] is Clostridium perfringens PB6K strain. Briefly: microbe, parasite or virus in culture. The conditions noted are these: Clostridium perfringens, PB6KSTRAIN, read-out: MIC Clostridium perfringens PB6K, PB6K strain; CD medium, 37° C. overnight, 10% CO2-containing anaerobic conditions.
Setting [10] is: 209P strain, regular bouillon medium, 37° C. overnight, turbidity.
[11] abbreviates: BE1121 strain, regular bouillon medium, 37° C. overnight, turbidity.
[12] abbreviates: Smith strain, regular bouillon medium, 37° C. overnight, turbidity.
[13] abbreviates: K-12 strain, regular bouillon medium, 37° C. overnight, turbidity.
[14] abbreviates: 5038 strain, Heart Infusion Broth medium, 37° C. overnight, turbidity.
Setting [15] is: MRSA No. 17, regular bouillon medium, 37° C. overnight, turbidity.
Where [16] appears, read: NCTC12201 strain (VRE), Heart Infusion Broth medium, 37° C. overnight, turbidity.

Values after ≈ are worked out from the molar mass of the structure shown. Read-outs that look alike come from different tables or passages of the source. Where only a bound is given, the exact number is not on record here.

On to `CCCCCCCCCC(=O)N[C@@H](C)C(=O)c1c(O)c2ccccc2oc1=O` [B011, 3-(2-decanoylaminopropionyl)-4-hydroxycoumarin], for which the MIC in assay [1] (setting [10]) is 256 µg/mL (≈ 661 µM); in [2] it was 2 µg/mL (≈ 5.16 µM); in assay [3] (setting [11]), 256 µg/mL (≈ 661 µM); in [4] (setting [12]), 256 µg/mL (≈ 661 µM); in [5] (setting [13]) it was 256 µg/mL (≈ 661 µM); in assay [6] (setting [14]), 256 µg/mL (≈ 661 µM). In addition, the MIC was found to be 256 µg/mL (≈ 661 µM) in assay [7] (setting [15]), 256 µg/mL (≈ 661 µM) in [8] (setting [16]) and 1 µg/mL (≈ 2.58 µM) in assay [9].
On to `CCCCCCCCCC(=O)c1c(O)c2cc(C)ccc2oc1=O` [B012, 3-decanoyl-6-methyl-4-hydroxycoumarin], for which the MIC was determined as 0.5 µg/mL (≈ 1.51 µM) in [1] (setting [10]); 0.25 µg/mL (≈ 0.757 µM) in [2]; 256 µg/mL (≈ 775 µM) in assay [3] (setting [11]); 0.5 µg/mL (≈ 1.51 µM) in assay [4] (setting [12]); 256 µg/mL (≈ 775 µM) in [5] (setting [13]); 0.25 µg/mL (≈ 0.757 µM) in assay [6] (setting [14]). Further, the MIC amounted to 0.5 µg/mL (≈ 1.51 µM) in assay [7] (setting [15]), 0.25 µg/mL (≈ 0.757 µM) in assay [8] (setting [16]) and 0.5 µg/mL (≈ 1.51 µM) in assay [9].
For `O=C(NCC(=O)c1c(O)c2ccccc2oc1=O)c1ccccc1` [B013, 3-benzoylaminoacetyl-4-hydroxycoumarin], the MIC in [1] (setting [10]) is 256 µg/mL (≈ 792 µM); in assay [2], 128 µg/mL (≈ 396 µM); in assay [3] (setting [11]), 256 µg/mL (≈ 792 µM); in assay [4] (setting [12]), 256 µg/mL (≈ 792 µM); in [5] (setting [13]) it was 256 µg/mL (≈ 792 µM); in assay [6] (setting [14]), 256 µg/mL (≈ 792 µM). In addition, the MIC in assay [7] (setting [15]) is 256 µg/mL (≈ 792 µM); in assay [8] (setting [16]), 256 µg/mL (≈ 792 µM); in assay [9] it was 128 µg/mL (≈ 396 µM).
On to `CCCCCCCCCCOCC(=O)c1c(O)c2ccccc2oc1=O` [B015, 3-decyloxyacetyl-4-hydroxycoumarin], for which the MIC in assay [1] (209P) stood at 8 µg/mL (≈ 22.2 µM); in assay [2], 0.25 µg/mL (≈ 0.694 µM); in [3], 128 µg/mL (≈ 355 µM); in assay [4] it was 2 µg/mL (≈ 5.55 µM); in assay [5] it was 256 µg/mL (≈ 710 µM); in assay [6] (5038STRAIN) it was 4 µg/mL (≈ 11.1 µM). Besides, the MIC in assay [7] (MRSA) came to 8 µg/mL (≈ 22.2 µM); in assay [8] it was 2 µg/mL (≈ 5.55 µM); in assay [9], 25 µg/mL (≈ 69.4 µM).
`CCCCCCCCCC(=O)NCC(=O)c1c(O)c2ccccc2oc1=O` [B016, 3-decanoylaminoacetyl-4-hydroxycoumarin]: the MIC in assay [1] (setting [10]) was 256 µg/mL (≈ 686 µM); in [2], 8 µg/mL (≈ 21.4 µM); in assay [3] (setting [11]) it was 256 µg/mL (≈ 686 µM); in assay [4] (setting [12]), 256 µg/mL (≈ 686 µM); in assay [5] (setting [13]) it was 256 µg/mL (≈ 686 µM); in [6] (setting [14]), 256 µg/mL (≈ 686 µM). Further, the MIC came out at 256 µg/mL (≈ 686 µM) in [7] (setting [15]), 256 µg/mL (≈ 686 µM) in assay [8] (setting [16]) and 16 µg/mL (≈ 42.8 µM) in assay [9].
With `CCCCCCCCCCOC(C)C(=O)c1c(O)c2ccccc2oc1=O` (stereo not drawn) [B017, 3-(2-decyloxypropionyl)-4-hydroxycoumarin], the MIC in assay [1] (setting [10]) was 8 µg/mL (≈ 21.4 µM); in assay [2], less than 0.125 µg/mL; in [3] (setting [11]), 256 µg/mL (≈ 684 µM); in [4] it was 2 µg/mL (≈ 5.34 µM); in assay [5] (setting [13]), 256 µg/mL (≈ 684 µM); in assay [6] (5038STRAIN), 1 µg/mL (≈ 2.67 µM). Moreover, the MIC in [7] (MRSA) is 4 µg/mL (≈ 10.7 µM); in assay [8], 0.5 µg/mL (≈ 1.34 µM); in assay [9], 0.25 µg/mL (≈ 0.668 µM).
Regarding `CCCCCCCCCCOCC(=O)c1c(O)c2cc(F)ccc2oc1=O` [B019, 3-decyloxyacetyl-6-fluoro-4-hydroxycoumarin], the MIC was 256 µg/mL (≈ 676 µM) in assay [1] (setting [10]); less than 0.125 µg/mL in [2]; 256 µg/mL (≈ 676 µM) in assay [3] (setting [11]); 256 µg/mL (≈ 676 µM) in assay [4] (setting [12]); 256 µg/mL (≈ 676 µM) in [5] (setting [13]); 256 µg/mL (≈ 676 µM) in [6] (setting [14]). For the same compound, the figures for the MIC in assay [7] (setting [15]), in assay [8] (setting [16]) and in [9] were 256 µg/mL (≈ 676 µM), 256 µg/mL (≈ 676 µM) and less than 0.125 µg/mL, respectively.
`CCCCCCCCNC(=O)c1c(O)c2ccccc2oc1=O` [B020, 3-(octylaminocarbonyl)-4-hydroxycoumarin]: the MIC came out at 8 µg/mL (≈ 25.2 µM) in [1] (setting [10]); 1 µg/mL (≈ 3.15 µM) in assay [2]; 32 µg/mL (≈ 101 µM) in [3] (setting [11]); 8 µg/mL (≈ 25.2 µM) in assay [4] (setting [12]); 64 µg/mL (≈ 202 µM) in assay [5] (setting [13]); 1 µg/mL (≈ 3.15 µM) in assay [6] (setting [14]). For the same compound, the MIC in assay [7] (setting [15]) was determined as 16 µg/mL (≈ 50.4 µM); in assay [8] (setting [16]), 1 µg/mL (≈ 3.15 µM); in [9], 8 µg/mL (≈ 25.2 µM).
